# Experiments:
# [1] = Acute toxicity (LD50, Behrens-Karber method); type: in vivo, ICR mice; settings: ip, mortality during 30 days; for LD50 at 720 h: mouse, in vivo
# Procedure: Test compounds, dissolved or suspended in 0.5% aqueous CMC, were each intraperitoneally administered to ICR mice in a dose of 0.1 ml per 10 g body weight. LD50 (mg/kg) value of each test compound was calculated from the mortality of mice during 30 days by the Behrens-Karber method.
# [2] = system: Leukemia L1210; experiment: Activity against Leukemia L1210, intraperitoneal, increase in life span of mice; type: in vivo, female mice (BDF1 family); settings: for ED (maximum ILS) / ED30: Mus musculus, L1210, ip; for ED (maximum ILS): read-out: O.D. (optimum dosage); for ED30: read-out: ILS30; for Survivors after 60 days / Max. ILS % / Therapeutic ratio TR: ip; for Survivors after 60 days: 6-membered group; for Max. ILS %: 60-day observation, versus control; for Therapeutic ratio TR: O.D./ILS30
# Procedure, shortened: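 Beginning 24 hours after intraperitoneal implantation of 1×10^5 leukemia cells, six-mouse groups of female BDF1 mice receive the test compound once daily for five consecutive days by the ip or oral route. Survival is recorded up to 60 days and compared with untreated controls.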
# [3] = system: Leukemia L1210; experiment: Activity against Leukemia L1210, oral, increase in life span of mice; type: in vivo, female mice (BDF1 family); settings: for ED (maximum ILS) / ED30: Mus musculus, L1210; for ED (maximum ILS): read-out: O.D. (optimum dosage); for ED30: read-out: ILS30; for Survivors after 60 days / Max. ILS % / Therapeutic ratio TR: oral; for Survivors after 60 days: 6-membered group; for Max. ILS %: 60-day observation, versus control; for Therapeutic ratio TR: O.D./ILS30
# Procedure: Tests were conducted in accordance with the method for measuring antitumor activity of National Cancer Center Tokyo (A, Hoshi et al, Farumashia 9 464 (1973)). Test compounds were each intraperitoneally (referred to as ip) or orally (referred to as op) administered once a day for 5 successive days to a 6-membered group of femal mice (BDF1 family, each weighing 20 to 23 g) 24 hours after 1×10^5 cells of Leukemia L1210 have been implantated into the abdominal cavities of the mice, and the effect was evaluated by comparing the survival days of treated groups with those of an untreated group of mice (control group) in 60-day observation. An increase percentage of life span (ILS%) was calculated from said average survival days compared with those of the control group. Further, therapeutic ratio (O.D./ILD30, referred to as T.R.) of each tested compound was calculated from the daily dosage of the compound necessary to increase said average survival days by 30% as compared with the control group (this dosage is referred to as ILS 30) and the daily dosage giving a maximum increase of life span to mice implantated with L1210 cells, namely an optimum dosage (referred to as O.D.). The results of five successive days intraperitoneal administrations of test compounds were shown in Tables I to III, and those of five successive oral administrations in Table IV.
# [4] = ip once a day for 5 successive days, daily dosage giving maximum increase of life span
# [5] = ip once a day for 5 successive days, daily dosage increasing average survival days by 30%
# [6] = oral once a day for 5 successive days, daily dosage giving maximum increase of life span
# [7] = oral once a day for 5 successive days, daily dosage increasing average survival days by 30%
Compound,LD50 at 720 h [1],"ED (maximum ILS) [2, 4]","ED30 [2, 5]",Survivors after 60 days [2],Max. ILS % [2],Therapeutic ratio TR [2],"ED (maximum ILS) [3, 6]","ED30 [3, 7]",Survivors after 60 days [3],Max. ILS % [3],Therapeutic ratio TR [3],LD50 [1],"O.D. (optimum dosage) [2, 4]","ILS30 [2, 5]","O.D. (optimum dosage) [3, 6]","ILS30 [3, 7]"
"COC(C)CCO[C@H]1O[C@H](CN(C(=O)N(CCCl)N=O)C(C)(C)C)[C@@H](O)[C@H](O)[C@H]1O (stereo partly drawn) [Compound 198, 3-tert-butyl-3-(3-methoxy-n-butyl α-D-glucopyranose-6-yl)-1-(2-chloroethyl)-1-ntirosourea]",570 mg/kg,180 mg/kg,2.76 mg/kg,6/6,> 700%,65.3,220 mg/kg,9.69 mg/kg,5/6,> 640%,22.7,–,–,–,–,–
"O=NN(CCCl)C(=O)N(CC1CCCO1)[C@H]1[C@H](OC2CCCCC2)OC[C@H](O)[C@@H]1O (stereo partly drawn) [Compound 156, 3-tetrahydrofurfuryl-3-(cyclohexyl α-L-arabinopyranose-2-yl)-1-(2-chloroethyl)-1-nitrosourea]",480 mg/kg,150 mg/kg,2.45 mg/kg,6/6,> 700%,61.2,180 mg/kg,9.78 mg/kg,4/6,> 460%,18.4,–,–,–,–,–
"O=NN(CCCl)C(=O)N[C@H]1C(O)O[C@H](CO)[C@@H](O)[C@@H]1O (some centres unmarked) [DCNU, reference compound]",39 mg/kg,6.2 mg/kg,0.7 mg/kg,5/6,> 625%,8.9,100 mg/kg,–,0/6,20%,–,–,–,–,–,–
"COCCCO[C@@H]1O[C@H](CN(CC(C)C)C(=O)N(CCCl)N=O)[C@@H](O)[C@H]1O [Compound 167, 3-isobutyl-3-(3-methoxy-n-propyl β-D-ribofuranose-5-yl)-1-(2-chloroethyl)-1-nitrosourea]",510 mg/kg,160 mg/kg,3.17 mg/kg,4/6,> 430%,50.5,180 mg/kg,12 mg/kg,4/6,> 450%,15.0,–,–,–,–,–
"COCCN(C(=O)N(CCCl)N=O)C1C(O)C(CO)OC(OC2CCCCC2)C1O [Compound 89, 3-(2-methoxyethyl)-3-(cyclohexyl α-D-glucopyranose-3-yl)-1-(2-chloroethyl)-1-nitrosourea]",690 mg/kg,170 mg/kg,2.66 mg/kg,6/6,> 700%,63.9,210 mg/kg,12.5 mg/kg,4/6,> 450%,16.8,–,–,–,–,–
"CCC(COC)O[C@H]1O[C@H](CN(CC(C)(C)C)C(=O)N(CCCl)N=O)[C@@H](O)[C@H](O)[C@H]1O (stereo partly drawn) [Compound 185, 3-neopentyl-3-(1-methoxy-2-n-butyl α-D-glucopyranose-6-yl)-1-(2-chloroethyl)-1-nitrosourea]",550 mg/kg,170 mg/kg,2.69 mg/kg,6/6,> 700%,63.1,200 mg/kg,8.16 mg/kg,5/6,> 625%,24.5,–,–,–,–,–
"CCCCOC1OC(CO)C(O)C(N(CC(C)OC)C(=O)N(CCCl)N=O)C1O [Compound 83, 3-(2-methoxy-n-propyl)-3-(n-butyl α-D-glucopyranose-3-yl)-1-(2-chloroethyl)-1-nitrosourea]",665 mg/kg,200 mg/kg,5.03 mg/kg,4/6,> 425%,39.8,240 mg/kg,16.8 mg/kg,3/6,> 360%,14.3,–,–,–,–,–
"CCOCCO[C@H]1O[C@H](CN(C(=O)N(CCCl)N=O)C(C)C)[C@H](O)[C@H](O)[C@H]1O [Compound 113, 3-isopropyl-3-(2-ethoxyethyl α-D-galactopyranose-6-yl)-1-(2-chloroethyl)-1-nitrosourea]",450 mg/kg,150 mg/kg,2.23 mg/kg,6/6,> 700%,67.3,180 mg/kg,7.32 mg/kg,6/6,> 700%,24.6,–,–,–,–,–
3-tert-butyl-3-(1-methoxy-2-methoxyethyl α-D-glucopyranose-6-yl)-1-(2-chloroethyl)-1-nitrosourea [Compound 195],–,–,–,6/6,> 700%,55.4,–,–,5/6,> 620%,23.5,540 mg/kg,160 mg/kg,2.89 mg/kg,200 mg/kg,8.51 mg/kg
"COCC(C)N(C(=O)N(CCCl)N=O)[C@H]1[C@@H](O)[C@@H](CO)O[C@H](OCC(C)C)[C@@H]1O (stereo partly drawn) [Compound 126, 3-(1-methyl-2-methoxyethyl)-3-(isobutyl α-D-galactopyranose-3-yl)-1-(2-chloroethyl)-1-nitrosourea]",785 mg/kg,250 mg/kg,6.22 mg/kg,3/6,> 355%,40.2,240 mg/kg,15.4 mg/kg,3/6,> 350%,15.6,–,–,–,–,–
"COCCCO[C@H]1O[C@H](CN(CC(C)(C)C)C(=O)N(CCCl)N=O)[C@@H](O)[C@H](O)[C@H]1O [Compound 186, 3-neopentyl-3-(3-methoxy-n-propyl α-D-glucopyranose-6-yl)-1-(2-chloroethyl)-1-nitrosourea]",520 mg/kg,160 mg/kg,2.49 mg/kg,6/6,> 700%,64.3,200 mg/kg,8.55 mg/kg,5/6,> 620%,23.4,–,–,–,–,–
"CC(C)CN(C[C@H]1O[C@@H](OC2CCCCC2)[C@@H](O)[C@@H]1O)C(=O)N(CCCl)N=O [Compound 161, 3-isobutyl-3-(cyclohexyl β-D-arabinofuranose-5-yl)-1-(2-chloroethyl)-1-nitrosourea]",460 mg/kg,150 mg/kg,3.18 mg/kg,4/6,> 440%,47.2,180 mg/kg,12.7 mg/kg,3/6,> 350%,14.2,–,–,–,–,–
"COC(C)CN(C[C@H]1O[C@H](OC(C)C)[C@H](O)[C@@H](O)[C@@H]1O)C(=O)N(CCCl)N=O (stereo partly drawn) [Compound 2, 3-(2-methoxy-n-propyl)-3-(isopropyl α-D-glucopyranose-6-yl)-1-(2-chloroethyl)-1-nitrosourea]",420 mg/kg,140 mg/kg,2.3 mg/kg,6/6,> 700%,60.9,180 mg/kg,7.35 mg/kg,6/6,> 700%,24.5,–,–,–,–,–
"COC(C)CN(C(=O)N(CCCl)N=O)[C@@H]1[C@@H](OCC(C)C)OC[C@@H](O)[C@H]1O (stereo partly drawn) [Compound 159, 3-(2-methoxy-n-propyl)-3-(isobutyl α-D-arabinopyranose-2-yl)-1-(2-chloroethyl)-1-nitrosourea]",520 mg/kg,160 mg/kg,2.61 mg/kg,6/6,> 700%,61.3,180 mg/kg,10.9 mg/kg,5/6,> 625%,16.5,–,–,–,–,–

# Reference: patent US4593090A, “Novel nitrosourea compounds, method for preparing same, and pharmaceutical composition containing same” (Gogo Kimura, priority 1981, dated 1986)
